How the values were obtained:
[1] = molecular target: T1, CDK7/Cyclin H/MAT-1 complex (Homo sapiens, UniProt P50613); experiment: Absorbance kinetic assay (20 nM CDK7/Cyclin H/MAT-1 complex); type: biochemical; details: for IC50: read-out: CDK7 (20 nM) pIC50 (converted)
T1 construct: Human CDK7 (amino acids 1-346); His6 (N); TEV protease cleavage site (N); made in house; host or cells: baculovirus-SF9 insect cells
Protocol: Human CDK7 (amino acids 1-346) containing an N-terminal His6-tag followed by a tobacco etch virus (TEV) protease cleavage site, human MAT1 (amino acids 1-309) and human cyclin H (amino acids 1-323) were co-expressed in the baculovirus-SF9 insect cell expression system to generate a trimeric complex. Cell pellets were collected 72 h post-infection and were resuspended by Dounce homogenization in 20 mM Hepes-NaOH (pH 8.0), 300 mM NaCl, 10% glycerol, 2 mM dithiothreitol DTT), and 20 mM Imidazole supplemented with cOmplete™ Protease Inhibitor Cocktail (Roche) and 25 U/mL Benzonase® Nuclease HC according to the manufacturer's instructions. Cells were lysed by passing through a Microfluidics M110Y Microfluidizer 3 times at 600 kPa followed by centrifugation at 38,000×g at 4° C. for 1 hour. The supernatant was loaded onto a pre-equilibrated HisTrap HP column and eluted in 20 mM Hepes-NaOH (pH 8.0), 50 mM NaCl, 10% glycerol, 2 mM DTT, and 400 mM Imidazole. The eluate was further purified by gel filtration on a Superdex S200 16/60 column and eluted with 20 mM Hepes-NaOH (pH 7.5), 50 mM NaCl, 10% Glycerol, 2 mM DTT. Fractions containing a trimeric complex of CDK7, cyclin H, and MAT1 in a 1:1:1 ratio were pooled and concentrated to 3 mg/mL in a 10 kDa MWCO concentrator, and diluted to a final concentration of 1.6 mg/mL in 11.1 mM Hepes-NaOH (pH 8.0), 27.8 mM NaCl, 1.1 mM DTT and 50% glycerol. […]
Absorbance Kinetic Assay (20 nM CDK7/Cyclin H/MAT-1 Complex)
CDK7 complex catalyzes the ATP-dependent phosphorylation of a peptide substrate CDK7/9-tide that is derived from RNA Pol II to produce phosphorylated peptide and ADP. The kinase reaction product ADP was converted to lactate and NAD^+ in the presence of phosphoenol pyruvate (PEP), NADH and coupling enzymes lactate dehydrogenase (LDH) and pyruvate kinase (PK). CDK7 complex catalytic activity was measured by following the absorbance intensity continuously at 340 nm that corresponds with the depletion of NADH.
Absorbance at 340 nm was followed kinetically at an interval of 2 minutes for 8 hours.
The assay was carried out with 100 μl reaction volume per well in a 384-well plate that was pre-spotted nanoliter volume of compounds by LabCyte Echo 555. Compound dilution plates were made by 2-fold (could vary upon necessity) dilution in DMSO for 11 concentrations plus a DMSO control of uninhibited reaction. 2× substrate and coupling reagent mixture was added to the assay plate followed by an addition of an equal volume of 40 nM CDK7/Cyclin H/MAT-1 complex. After mixing, assay plates were spun at 2000 rpm for 3 minutes and then transferred to the plate reader for data collection.
For reversible inhibitors, the absorbance reaction progress curves were linear. The steady-state rate was derived from the slope of the linear curves. The following equation is applied to determine percent inhibition.
[formula] • νo=max rate (uninhibited rate) • νi=inhibited rate
The IC50 value is calculated by the following equation:
[formula] where νo is the rate in the absence of inhibitor, νmin is the rate at highest inhibitor concentration, and h is the Hill coefficient. Flint Assay (5 nM CDK7/Cyclin H/MAT-1 Complex)

[2] = tested on: RNA polymerase II Serine 5 phosphorylation (Rpb1 CTD), downstream substrate of CDK7; experiment: Imaging-based cellular RNA PolII Ser5 phosphorylation assay in A549 cells; type: cell-based, human; details: Homo sapiens, A549, 3 h, challenged with compound for 3 hours, read-out: pRNA polII Ser5 (A549) pIC50 (converted)
Description: Dosing curves were fitted using the following equation to obtain IC50: Y=Bottom+(Top−Bottom)/(1+10^((log IC50−X)*Hill slope)) where X=log10 of the compound concentration; top and bottom can be defined by PC and NC respectively. Imaging-Based Cellular RNA PolII Ser5 Phosphorylation Assay
To evaluate inhibition of CDK7 kinase activity, a 384-well automated imaging assay was used. This assay detects Serine 5 phosphorylation on a unique heptapeptide sequence in the C-terminal domain of Rpb1 subunit of RNA polymerase II, the downstream substrate of CDK7. This heptapeptide sequence is repeated up to 52 times in the CTD of Rpb1.
A549 adenocarcinoma human alveolar basal epithelial cells (ATCC, CCL-185), rabbit Phospho-Rpb1 CTD (Ser5) antibody (D9N51 (Cell Signaling Technology)), DMEM (Sigma), Fetal Bovine Serum (Biowest), L-glutamine (Sigma), Penicillin/Streptomycin (Life Technologies), Sodium Pyruvate (Sigma), Hepes (Sigma), poly-D-lysine coated μclear 384 black plates (Greiner), formaldehyde (PolySciences), D-PBS (Sigma), Methanol (Sigma), Alexa Fluor 488 goat anti rabbit IgG secondary antibody (Life Technologies), HCS CellMask™ Deep Red stain (Life Technologies), Hoechst 33258 (Invitrogen).
RNA Polymerase II Serine 5 phosphorylation was detected using a specific rabbit Phospho-Rpb1 CTD (Ser5) antibody. A549 adenocarcinoma human alveolar basal epithelial cells were seeded in 20 μl medium (DMEM supplemented with 1% Fetal Bovine Serum (heat inactivated 30′ 56° C.), 2 mM L-glutamine, 50 U/ml penicillin 50 μg/ml streptomycin, 1 mM sodium pyruvate and 50 mM hepes) at 1000 cells/well and cultured in poly-D-lysine coated μclear 384 black plates for 20 hours at 37° C. and 5% CO2.
After incubation cells were challenged with compound for 3 hours at 37° C. and 5% CO2. DMSO was used as high control and as low control 10 μM of LDC4297 reference compound was used. 40 nl of test compounds and controls were spotted in cell plates using Echo Liquid Handler (Echo 550, Labcyte). Incubation was followed by 20 minutes fixation with 20 μl 10% formaldehyde at room temperature. Medium/formaldehyde solution was removed, plates were washed 3 times with 30 μl D-PBS (w/o Ca^2+ and Ma^2+) and permeabilization was done by adding 20 μl ice cold methanol for 20 minutes. Cells were washed again 3 times with 30 μl D-PBS and 20 μl blocking buffer (25 ml fetal bovine serum in 500 ml D-PBS) was added for 1 hour.
After removing blocking buffer 20 μl 1/1000 primary antibody rabbit. Phospho-Rpb1 CTD (Ser5) antibody was added which binds to the phosphorylated Serine5 of the heptapeptide sequences in the CTD of Rpb1. Primary antibody was removed, and plates were washed 3 times with 30 μl D-PBS followed by addition of 20 μl 1/2000 Alexa Fluor 488 goat anti rabbit IgG secondary antibody for final detection of Phospho-Rpb1 CTD (Ser5) together with 1/5000 HCS CellMask™ Deep Red stain for membrane staining and 1/5000 Hoechst 33258 for nucleus staining. Last, plates were washed 2 times with 30 μl D-PBS and wells were filled with 40 μL D-PBS, plates were sealed (Thermowell sealing tape) and stored at 4° C. until reading. Plates were read with Opera Phenix (Perkin Elmer) with 10× air objective. Data were calculated and analyzed in Phaedra.
IC50 values were calculated using the following formula:
Average value of all HC's and all LC's are used for normalizations. % Effect=100−(sample−LC)/(HC−LC)×100% Control=(sample/HC)×100
A best-fit curve is fitted by a minimum sum of squares method to the plot of % Control vs. compound concentration. From this an IC50 value can be obtained. An estimate of the slope of the plot in terms of the Hill coefficient is also obtained.

T1 sequence (P50613 whole entry, the tested form may be a part): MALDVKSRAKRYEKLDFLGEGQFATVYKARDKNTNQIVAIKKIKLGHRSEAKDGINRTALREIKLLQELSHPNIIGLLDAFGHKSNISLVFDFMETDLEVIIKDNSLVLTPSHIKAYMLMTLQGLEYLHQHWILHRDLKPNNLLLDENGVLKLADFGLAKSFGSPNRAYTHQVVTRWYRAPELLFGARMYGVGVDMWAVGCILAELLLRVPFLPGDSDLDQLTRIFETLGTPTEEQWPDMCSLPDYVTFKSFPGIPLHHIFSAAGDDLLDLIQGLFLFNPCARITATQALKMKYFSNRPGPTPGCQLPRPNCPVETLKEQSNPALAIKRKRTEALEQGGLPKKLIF
T1 sequence (P51946 whole entry partner, the tested form may be a part): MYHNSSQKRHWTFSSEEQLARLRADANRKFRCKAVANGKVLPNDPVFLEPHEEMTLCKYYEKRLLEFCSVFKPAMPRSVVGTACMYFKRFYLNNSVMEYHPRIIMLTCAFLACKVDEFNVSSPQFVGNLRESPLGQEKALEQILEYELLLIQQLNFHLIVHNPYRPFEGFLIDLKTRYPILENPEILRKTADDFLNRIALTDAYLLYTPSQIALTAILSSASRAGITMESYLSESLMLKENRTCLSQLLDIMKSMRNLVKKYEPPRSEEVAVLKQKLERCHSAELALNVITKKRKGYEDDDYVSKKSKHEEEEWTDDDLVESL
T1 sequence (P51948 whole entry partner, the tested form may be a part): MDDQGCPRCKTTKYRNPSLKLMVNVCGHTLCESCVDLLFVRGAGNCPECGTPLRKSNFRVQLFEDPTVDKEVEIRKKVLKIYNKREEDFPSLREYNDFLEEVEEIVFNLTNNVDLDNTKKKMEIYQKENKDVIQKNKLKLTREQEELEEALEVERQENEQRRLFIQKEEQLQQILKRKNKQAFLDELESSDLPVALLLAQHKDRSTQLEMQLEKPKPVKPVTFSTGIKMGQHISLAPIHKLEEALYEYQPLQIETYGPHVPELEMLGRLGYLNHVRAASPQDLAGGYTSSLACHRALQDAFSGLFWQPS

Structure (SMILES) | IC50 [1] | IC50 [2] | CDK7 (20 nM) pIC50 [1]
C[C@@H]1Cc2cnc(NC3CCOCC3)nc2CN1C(=O)[C@H]1CCN(C)C[C@@H]1c1ccc(F)c(Cl)c1 (relative stereo) [Compound 114] | 11 nM | 56.2 nM | 
Cc1cc([C@H]2CN(C)CC[C@@H]2C(=O)N2Cc3nc(NC4CCOCC4)ncc3C[C@H]2C)ccn1 (relative stereo) [Compound 103] | > 10000 nM | > 10000 nM | 
C[C@@H]1Cc2cnc(NCC3CC3)nc2CN1C(=O)[C@H]1CCN(C)C[C@@H]1c1ccccc1 [Compound 34] |  | 275 nM | 7.94
CC(C)N1CC[C@@H](C(=O)N2Cc3nc(NC4CCOCC4)ncc3C[C@H]2C)[C@H](c2ccc(Cl)c(F)c2)C1 (single isomer, unassigned) [Compound 165] |  | 3240 nM | 6.10
CC(C)N1CC[C@@H](C(=O)N2Cc3nc(NC4CCOCC4)ncc3C[C@H]2C)[C@H](c2cccc(F)c2)C1 (single isomer, unassigned) [Compound 164] |  | 4070 nM | 6.06
C[C@@H]1Cc2cnc(NC3CCOCC3)nc2CN1C(=O)[C@@H]1CCN(C)C[C@H]1C1CC1 (relative stereo) [Compound 112] | > 10000 nM | > 10000 nM | 
C[C@@H]1Cc2cnc(NC3CCN(C4COC4)CC3)nc2CN1C(=O)[C@H]1CCN(C)C[C@@H]1c1ccccc1 [Compound 25] |  | 776 nM | 7.46
Cc1cccc([C@@H]2CN(C)CC[C@H]2C(=O)N2Cc3nc(Nc4cnn(C)c4)ncc3C[C@H]2C)c1 (relative stereo) [Compound 125] | 339 nM | 794 nM | 
C[C@@H]1Cc2cnc(NC3CCOCC3)nc2CN1C(=O)[C@H]1CCN(C)C[C@@H]1C1CC1 (relative stereo) [Compound 113] | 79.4 nM | 1740 nM | 
C[C@@H]1Cc2cnc(NC3CCN(C(=O)C4CC4)CC3)nc2CN1C(=O)[C@H]1CCN(C)C[C@@H]1c1ccccc1 [Compound 33] |  | 162 nM | 7.88
C[C@H](Nc1ncc2c(n1)CN(C(=O)[C@H]1CCN(C)C[C@@H]1c1ccccc1)[C@H](C)C2)c1ccccc1 [Compound 23] |  | 302 nM | 7.97
C[C@@H]1Cc2cnc(NCc3c(F)cccc3F)nc2CN1C(=O)[C@H]1CCN(C)C[C@@H]1c1ccccc1 [Compound 32] |  | 372 nM | 7.9
C[C@@H]1Cc2cnc(NC[C@H]3CCCO3)nc2CN1C(=O)[C@H]1CCN(C)C[C@@H]1c1ccccc1 [Compound 68] | 14.5 nM | 2400 nM | 
CO[C@H]1CC[C@H](Nc2ncc3c(n2)CN(C(=O)[C@@H]2CCN(C)C[C@H]2c2ccc(C)nc2)[C@H](C)C3)CC1 (relative stereo) [Compound 109] | > 10000 nM | > 10000 nM | 

Next, values leading:

IC50 [1] | IC50 [2] | CDK7 (20 nM) pIC50 [1] | Structure (SMILES)
> 10000 nM | > 10000 nM |  | C[C@H]1CN(C(=O)[C@H]2CCN(C)C[C@@H]2c2ccccc2)Cc2nc(NC3CCOCC3)ncc21 (relative stereo) [Compound 187]
11.7 nM | 269 nM |  | Cc1ccc([C@H]2CN(C)CC[C@@H]2C(=O)N2Cc3nc(NC4CCOCC4)ncc3C[C@H]2C)cc1 (relative stereo) [Compound 118]
457 nM | 955 nM |  | Cc1cccc([C@@H]2CN(C)CC[C@H]2C(=O)N2Cc3nc(NC4CCOCC4)ncc3C[C@H]2C)c1 (relative stereo) [Compound 137]
72.4 nM | ~39.8 nM |  | C[C@@H]1Cc2cnc(NC3CCOCC3)nc2CN1C(=O)[C@H]1CCN(C)C[C@@H]1c1cccc(Cl)c1 (relative stereo) [Compound 119]
 | > 10000 nM | 5.11 | C[C@@H]1Cc2cnc(NC3CCOCC3)nc2CN1C(=O)[C@@H]1CCN(C)C[C@H]1c1ccc(F)cc1 [Compound 92a]
42.7 nM | 724 nM |  | CC[C@@H]1Cc2cnc(NC3CCOCC3)nc2CN1C(=O)[C@H]1CCN(C)C[C@@H]1c1ccccc1 (relative stereo) [Compound 185]
37.2 nM | 1410 nM |  | C[C@@H]1Cc2cnc(NC3CCOCC3)nc2CN1C(=O)[C@@H]1CCN(C)C[C@H]1c1ccncc1 (relative stereo) [Compound 116]
 | ~67.6 nM | 7.92 | C[C@@H]1Cc2cnc(NC3CCOCC3)nc2CN1C(=O)[C@H]1CCN(C)C[C@@H]1c1ccc(F)cc1 (single isomer, unassigned) [Compound 92b]
 | 302 nM | 7.85 | C[C@@H]1Cc2cnc(NCC3CCOC3)nc2CN1C(=O)[C@H]1CCN(C)C[C@@H]1c1ccccc1 (stereo partly shown) [Compound 26]
 | 2400 nM | 7.19 | C[C@@H]1Cc2cnc(NCC3CCOCC3)nc2CN1C(=O)[C@H]1CCN(C)C[C@@H]1c1ccccc1 [Compound 36]
468 nM | > 10000 nM |  | C[C@@H]1Cc2cnc(NC3CCOCC3)nc2CN1C(=O)[C@H]1CN(C)C[C@@H]1c1ccccc1 (relative stereo) [Compound 169a]
 | 479 nM | 7.89 | C[C@@H]1Cc2cnc(N[C@H]3CC[C@@H](C)CC3)nc2CN1C(=O)[C@H]1CCN(C)C[C@@H]1c1ccccc1 [Compound 14]
